Reference: US8946273B2, “S-Triazolyl alpha-mercapto acetanilides as inhibitors of HIV reverse transcriptase” (priority 2011, dated 2015)
Like-named read-outs stand apart in the source and are kept apart here.

Assays:
[1] = molecular target: T1, wild-type HIV reverse transcriptase (Human immunodeficiency virus type 1 group M subtype B, UniProt P04585); assay: Activity on wild type reverse transcriptase (Table 1 IC50 WT); assay type: biochemical
T1 construct: wild-type and four mutant HIV reverse transcriptases
Description: Using similar methods as described above, 2-[5-bromo-4-(4-cyclopropylnaphthalen-1-yl)-4H-[1,2,4]triazol-3-ylsulfanyl]-N-(2-methyl-4-sulfamoylphenyeacetamide and 2-[5-bromo-4-(4-ethylnaphthalen-1-yl)-4H-[1,2,4]triazol-3-ylsulfanyl]-N-(2-chloro-4-sulfamoylphenyl)-acetamide were synthesized, as were the N-4-carbamyl analog, 2-[5-bromo-4-(4-ethyl-naphthalen-1-yl)-4H-[1,2,4]triazol-3-ylsulfanyl]-N-(2-chloro-4-carbamoylphenyl)-acetamide and the N-4-carboxyl analog. Each of the compounds was tested against a panel of mutant HIV reverse transcriptases, including 20 of the 22 of the mutants that are found in about 2% or more of the patient samples that are resistant to the most widely used non-nucleoside HIV-RT inhibitor efavirenz ((4S)-6-chloro-4-(cyclopropylethynyl)-1,4-dihydro-4-(trifluoromethyl)-2H-3,1-benzoxazin-2-one). […] In most cases both criteria were met. […] […].
Compounds of the invention were tested against the wild-type and four mutant HIV reverse transcriptases. The results are listed in Table 1 as EC50 (nM) and IC50 (nM). In the Table, A represents <50 nM, B is between 50 and 100 nM, and C is >100 nM. ND is not determined.

[2] = molecular target: mutant HIV reverse transcriptases (Human immunodeficiency virus type 1, UniProt P12497, Y775L, cells depend on it); assay type: cell-based
[3] = molecular target: mutant HIV reverse transcriptases (Human immunodeficiency virus type 1, UniProt P12497, Y768C, cells depend on it); assay type: cell-based
wild type HIV-1 = assay: microbe, parasite or virus in culture; assay type: cell-based, human immunodeficiency virus type 1 (HIV-1)
[4] = Human immunodeficiency virus 1, Hela-JC53, read-out: EC50 WT

| Compound | IC50 [1] [nM] | EC50 [2] [nM] | EC50 [3] [nM] | EC50 (wild type HIV-1; [4]) [nM] | IC50 ([1]; read-out: IC50 WT RT, wild-type (WT) RT) [nM] | EC50 (wild type HIV-1; read-out: EC50 WT, wild-type (WT) HIV-1) [nM] |
| --- | --- | --- | --- | --- | --- | --- |
| CCc1ccc(-n2c(Br)nnc2SCC(=O)Nc2ccc(C(=O)NCC3CCNCC3)cc2Cl)c2ccccc12 [compound 139] | > 100 | 50 to 100 | < 50 | < 50 | – | – |
| NS(=O)(=O)c1ccc(NC(=O)CSc2nnc(Br)n2-c2ccc3c4c(cccc24)CC3)c(Cl)c1 [compound 37] | < 50 | < 50 | < 50 | < 50 | – | – |
| CC(C)C[C@H](NC(=O)c1ccc(NC(=O)CSc2nnc(Br)n2-c2ccc(C3CC3)c3ccccc23)c(Cl)c1)C(=O)O [compound 117] | < 50 | > 100 | 50 to 100 | < 50 | – | – |
| CC(C)[C@H](NC(=O)c1ccc(NC(=O)CSc2nnc(Br)n2-c2ccc(C3CC3)c3ccccc23)c(Cl)c1)C(=O)O [compound 106] | 50 to 100 | 50 to 100 | > 100 | < 50 | – | – |
| CCc1ccc(-n2c(C)nnc2SCC(=O)Nc2ccc(S(N)(=O)=O)cc2C)c2c1CCCC2 [compound 41] | < 50 | > 100 | < 50 | < 50 | – | – |
| O=C(O)CNC(=O)c1ccc(NC(=O)CSc2nnc(Br)n2-c2ccc(C3CC3)c3ccccc23)c(Cl)c1 [compound 110] | < 50 | > 100 | > 100 | < 50 | – | – |
| Cc1ccc2c(C)cc(C)c(-n3c(SCC(=O)Nc4ccc(S(N)(=O)=O)cc4Cl)nnc3C(F)F)c2n1 [compound 63] | < 50 | < 50 | < 50 | < 50 | – | – |
| CC(C)OC(=O)CNC(=O)c1ccc(NC(=O)CSc2nnc(Br)n2-c2ccc(C3CC3)c3ccccc23)c(Cl)c1 [compound 129] | < 50 | < 50 | < 50 | < 50 | – | – |
| CCc1ccc(-n2c(Br)nnc2SCC(=O)Nc2ccc(C(=O)N[C@@H](CO)C(=O)OC)cc2Cl)c2ccccc12 [compound 140] | < 50 | < 50 | < 50 | < 50 | – | – |
| CCc1ccc(-n2c(Br)nnc2SCC(=O)Nc2ccc(S(N)(=O)=O)cc2Br)c2ccccc12 [compound 73] | < 50 | < 50 | < 50 | < 50 | – | – |
| CCc1ccc(-n2c(Br)nnc2SCC(=O)Nc2ccc(C(=O)N[C@H](C(=O)OC)C(C)C)cc2Cl)c2ccccc12 [compound 102] | 50 to 100 | < 50 | < 50 | < 50 | – | – |
| Cc1ccc(-n2c(SCC(=O)Nc3ccc(S(=O)(=O)NC(C)C(=O)O)cc3Cl)nnc2C(F)F)c2c1CCCC2 (centres unmarked) [compound 59] | < 50 | > 100 | > 100 | > 100 | – | – |
| CCc1ccc(-n2c(Br)nnc2SCC(=O)Nc2ccc(S(=O)(=O)O)cc2Br)c2ccccc12 [compound 20] | < 50 | > 100 | > 100 | > 100 | – | – |
| CCCCNC(=O)c1ccc(NC(=O)CSc2nnc(Br)n2-c2ccc(CC)c3ccccc23)c(Cl)c1 [compound 121] | 50 to 100 | < 50 | < 50 | < 50 | – | – |
| Cc1ccc(-n2c(SCC(=O)Nc3ccc(S(=O)(=O)NCCC(=O)O)cc3Cl)nnc2C(F)F)c2c1CCCC2 [compound 58] | < 50 | > 100 | > 100 | 50 to 100 | – | – |
| O=C(CSc1nnc(Br)n1-c1ccc(C2CC2)c2ccccc12)Nc1ccc(C(=O)O)cc1Cl [compound 11] | – | < 50 | < 50 | – | < 50 | < 50 |
| Cc1cc(C2CC2)cc(C)c1-n1c(Br)nnc1SCC(=O)Nc1ccc(C(=O)O)cc1Cl [compound 33] | < 50 | > 100 | < 50 | < 50 | – | – |
| Cc1cc(S(N)(=O)=O)ccc1NC(=O)CSc1nnc(Br)n1-c1ccc(F)c2ccccc12 [compound 62] | < 50 | > 100 | < 50 | < 50 | – | – |
| CCc1ccc(-n2c(Br)nnc2SCC(=O)Nc2ccc(C(=O)NCCN3CCCC3)cc2Cl)c2ccccc12 [compound 123] | < 50 | < 50 | < 50 | < 50 | – | – |
| Cc1cc(S(N)(=O)=O)ccc1NC(=O)C(C)Sc1nnc(Br)n1-c1c(C)ccc2ccccc12 (centres unmarked) [compound 142] | < 50 | > 100 | < 50 | < 50 | – | – |
| Cc1cc(S(N)(=O)=O)ccc1NC(=O)CSc1nnc(Br)n1-c1ccc2c3c(cccc13)CC2 [compound 38] | < 50 | < 50 | < 50 | < 50 | – | – |

| Compound | IC50 [1] [nM] | EC50 [2] [nM] | EC50 [3] [nM] | EC50 (wild type HIV-1; [4]) [nM] | IC50 ([1]; read-out: IC50 WT RT, wild-type (WT) RT) [nM] | EC50 (wild type HIV-1; read-out: EC50 WT, wild-type (WT) HIV-1) [nM] |
| --- | --- | --- | --- | --- | --- | --- |
| O=C(CSc1nnc(Br)n1-c1ccc(C2CC2)cc1Cl)Nc1ccc(S(=O)(=O)O)cc1Cl [compound 21] | < 50 | > 100 | > 100 | 50 to 100 | – | – |
| CCc1ccc(-n2c(Br)nnc2SCC(=O)Nc2ccc(C(=O)NCC(=O)OC)cc2Cl)c2ccccc12 [compound 98] | < 50 | < 50 | < 50 | < 50 | – | – |
| O=C(CSc1nnc(Br)n1-c1cccc2c(OCC3CC3)cccc12)Nc1ccc(C(=O)O)cc1Cl [compound 32] | > 100 | > 100 | > 100 | > 100 | – | – |
| CCNC(=O)c1ccc(NC(=O)CSc2nnc(Br)n2-c2ccc(CC)c3ccccc23)c(Cl)c1 [compound 131] | < 50 | < 50 | < 50 | < 50 | – | – |
| Cc1ccc(-n2c(SCC(=O)Nc3ccc(S(=O)(=O)NC(C(=O)O)C(C)C)cc3Cl)nnc2C(F)F)c2c1CCCC2 (centres unmarked) [compound 60] | < 50 | > 100 | > 100 | > 100 | – | – |
| CCc1ccc(-n2c(Br)nnc2SCC(=O)Nc2ccc(C(=O)NCCN(C)C)cc2Cl)c2ccccc12 [compound 119] | < 50 | < 50 | < 50 | < 50 | – | – |
| NS(=O)(=O)c1ccc(NC(=O)CSc2nnc(C(F)F)n2-c2ccc(C3CCCC3)c3ccccc23)c(Cl)c1 [compound 68] | < 50 | > 100 | < 50 | < 50 | – | – |
| CCc1ccc(-n2c(C)nnc2SCC(=O)Nc2ccc(S(N)(=O)=O)cc2Cl)c2c1CCCC2 [compound 43] | < 50 | < 50 | < 50 | < 50 | – | – |
| Cc1cc(S(N)(=O)=O)ccc1NC(=O)CSc1nnc(CF)n1-c1ccc(C)c2c1CCCC2 [compound 65] | < 50 | 50 to 100 | < 50 | < 50 | – | – |
| NS(=O)(=O)c1ccc(NC(=O)CSc2nnc(C(F)F)n2-c2ccc3c4c(cccc24)CC3)c(Cl)c1 [compound 36] | < 50 | < 50 | < 50 | < 50 | – | – |
| NS(=O)(=O)c1ccc(NC(=O)CSc2nnc(C(F)F)n2-c2ccc(C3CCC3)c3ccccc23)c(Cl)c1 [compound 69] | < 50 | < 50 | < 50 | < 50 | – | – |
| Cc1ccc(-n2c(SCC(=O)Nc3ccc(S(=O)(=O)NCCN4CCOCC4)cc3Cl)nnc2C(F)F)c2c1CCCC2 [compound 57] | < 50 | 50 to 100 | < 50 | < 50 | – | – |
| O=C(CSc1nnc(Br)n1-c1ccc(C2CCC2)c2ccccc12)Nc1ccc(C(=O)O)cc1Cl [compound 26] | < 50 | < 50 | < 50 | < 50 | – | – |
| CCc1ccc(-n2c(Br)nnc2SCC(=O)Nc2ccc(C(=O)N3CCC(O)CC3)cc2Cl)c2ccccc12 [compound 134] | < 50 | < 50 | < 50 | < 50 | – | – |
| Cc1cc(S(N)(=O)=O)ccc1NC(=O)CSc1nnc(Br)n1-c1ccc(C2CC2)c2ccccc12 [compound 40] | < 50 | < 50 | < 50 | < 50 | – | – |
| CCc1ccc(-n2c(I)nnc2SCC(=O)Nc2ccc(S(N)(=O)=O)cc2Cl)c2ccccc12 [compound 70] | < 50 | < 50 | < 50 | < 50 | – | – |
| Cc1cc(S(N)(=O)=O)ccc1NC(=O)CSc1nnc(Br)n1-c1c(Cl)cc(C2CCC2)c2ccccc12 [compound 92] | < 50 | < 50 | < 50 | < 50 | – | – |
| O=C(CSc1nnc(Br)n1-c1ccc(C2CC2)cc1C(F)(F)F)Nc1ccc(C(=O)O)cc1Cl [compound 30] | < 50 | > 100 | < 50 | < 50 | – | – |
| NS(=O)(=O)c1ccc(NC(=O)CSc2nnc(C(F)F)n2-c2ccc(C3CC3)c3ccccc23)c(Cl)c1 [compound 44] | < 50 | < 50 | < 50 | < 50 | – | – |
| CCc1ccc(-n2c(SCC(=O)Nc3ccc(C(=O)O)cc3Cl)nnc2C(F)(F)F)c2ccccc12 [compound 16] | < 50 | > 100 | 50 to 100 | < 50 | – | – |
